Results taken from the NIST ThermoML archive (doi:10.1021/je049572f).

Assay: xn = mol fraction of the nth substance listed
Details: 101.33 kPa, Liquid

C=Cc1ccccc1 [styrene] + CCCCCCCC
Details | mass density [kg/m3] | viscosity [mPa·s]
293.15 K, x1 = 0.1085 | 719.52 | 0.537
293.15 K, x1 = 0.2151 | 736.18 | 0.537
293.15 K, x1 = 0.3202 | 753.7 | 0.541
293.15 K, x1 = 0.4223 | 772.01 | 0.551
293.15 K, x1 = 0.523 | 791.51 | 0.565
293.15 K, x1 = 0.622 | 812.07 | 0.593
293.15 K, x1 = 0.7189 | 833.64 | 0.619
293.15 K, x1 = 0.8145 | 856.59 | 0.649
293.15 K, x1 = 0.9081 | 880.84 | 0.694
293.15 K, x1 = 1 | 906.29 | 0.749
298.15 K, x1 = 0.1085 | 715.45 | 0.502
298.15 K, x1 = 0.2151 | 732.06 | 0.508
298.15 K, x1 = 0.3202 | 749.53 | 0.51
298.15 K, x1 = 0.4223 | 767.81 | 0.518
298.15 K, x1 = 0.523 | 787.27 | 0.533
298.15 K, x1 = 0.622 | 807.78 | 0.56
298.15 K, x1 = 0.7189 | 829.3 | 0.576
298.15 K, x1 = 0.8145 | 852.22 | 0.608
298.15 K, x1 = 0.9081 | 876.43 | 0.647
298.15 K, x1 = 1 | 901.86 | 0.699
303.15 K, x1 = 0.1085 | 711.38 | 0.475
303.15 K, x1 = 0.2151 | 727.94 | 0.477
303.15 K, x1 = 0.3202 | 745.38 | 0.48
303.15 K, x1 = 0.4223 | 763.63 | 0.489
303.15 K, x1 = 0.523 | 783.03 | 0.503
303.15 K, x1 = 0.622 | 803.5 | 0.527
303.15 K, x1 = 0.7189 | 824.98 | 0.544
303.15 K, x1 = 0.8145 | 847.87 | 0.571
303.15 K, x1 = 0.9081 | 872.03 | 0.609
303.15 K, x1 = 1 | 897.45 | 0.654
313.15 K, x1 = 0.1085 | 703.13 | 0.423
313.15 K, x1 = 0.2151 | 719.6 | 0.427
313.15 K, x1 = 0.3202 | 737 | 0.431
313.15 K, x1 = 0.4223 | 755.16 | 0.439
313.15 K, x1 = 0.523 | 774.46 | 0.451
313.15 K, x1 = 0.622 | 794.86 | 0.48
313.15 K, x1 = 0.7189 | 816.28 | 0.486
313.15 K, x1 = 0.8145 | 839.09 | 0.511
313.15 K, x1 = 0.9081 | 863.15 | 0.541
313.15 K, x1 = 1 | 888.53 | 0.577
323.15 K, x1 = 0.1085 | 694.84 | 0.381
323.15 K, x1 = 0.2151 | 711.23 | 0.385
323.15 K, x1 = 0.3202 | 728.58 | 0.388
323.15 K, x1 = 0.4223 | 746.66 | 0.396
323.15 K, x1 = 0.523 | 765.88 | 0.406
323.15 K, x1 = 0.622 | 786.22 | 0.427
323.15 K, x1 = 0.7189 | 807.56 | 0.437
323.15 K, x1 = 0.8145 | 830.31 | 0.46
323.15 K, x1 = 0.9081 | 854.31 | 0.484
323.15 K, x1 = 1 | 879.62 | 0.513
333.15 K, x1 = 0.1085 | 686.43 | 0.351
333.15 K, x1 = 0.2151 | 702.74 | 0.351
333.15 K, x1 = 0.3202 | 720.06 | 0.352
333.15 K, x1 = 0.4223 | 738.07 | 0.359
333.15 K, x1 = 0.523 | 757.21 | 0.368
333.15 K, x1 = 0.622 | 777.49 | 0.387
333.15 K, x1 = 0.7189 | 798.77 | 0.395
333.15 K, x1 = 0.8145 | 821.46 | 0.413
333.15 K, x1 = 0.9081 | 845.37 | 0.438
333.15 K, x1 = 1 | 870.64 | 0.462
343.15 K, x1 = 0.1085 | 677.99 | 0.321
343.15 K, x1 = 0.2151 | 694.24 | 0.325
343.15 K, x1 = 0.3202 | 711.51 | 0.322
343.15 K, x1 = 0.4223 | 729.46 | 0.328
343.15 K, x1 = 0.523 | 748.55 | 0.337
343.15 K, x1 = 0.622 | 768.75 | 0.355
343.15 K, x1 = 0.7189 | 789.97 | 0.362
343.15 K, x1 = 0.8145 | 812.63 | 0.376
343.15 K, x1 = 0.9081 | 836.5 | 0.398
343.15 K, x1 = 1 | 861.72 | 0.419
353.15 K, x1 = 0.1085 | 669.39 | 0.293
353.15 K, x1 = 0.2151 | 685.6 | 0.295
353.15 K, x1 = 0.3202 | 702.81 | 0.295
353.15 K, x1 = 0.4223 | 720.71 | 0.301
353.15 K, x1 = 0.523 | 739.76 | 0.308
353.15 K, x1 = 0.622 | 759.93 | 0.322
353.15 K, x1 = 0.7189 | 781.11 | 0.333
353.15 K, x1 = 0.8145 | 803.68 | 0.349
353.15 K, x1 = 0.9081 | 827.51 | 0.362
353.15 K, x1 = 1 | 852.68 | 0.381
363.15 K, x1 = 0.1085 | 660.98 | 0.27
363.15 K, x1 = 0.2151 | 677.15 | 0.268
363.15 K, x1 = 0.3202 | 694.32 | 0.273
363.15 K, x1 = 0.4223 | 712.19 | 0.277
363.15 K, x1 = 0.523 | 731.2 | 0.285
363.15 K, x1 = 0.622 | 751.34 | 0.294
363.15 K, x1 = 0.7189 | 772.48 | 0.304
363.15 K, x1 = 0.8145 | 795.04 | 0.318
363.15 K, x1 = 0.9081 | 818.82 | 0.333
363.15 K, x1 = 1 | 843.99 | 0.349

O=S1(=O)CCCC1 [sulfolane] + CCc1ccccc1
Details | mass density [kg/m3] | viscosity [mPa·s]
303.15 K, x2 = 0 | 1260.8 | 10.07
303.15 K, x2 = 0.1118 | 1209.27 | 6.224
303.15 K, x2 = 0.2205 | 1160.4 | 4.155
303.15 K, x2 = 0.3267 | 1114.66 | 2.942
303.15 K, x2 = 0.4301 | 1071.65 | 2.185
303.15 K, x2 = 0.5309 | 1031.19 | –
303.15 K, x2 = 0.6293 | 993.33 | 1.324
303.15 K, x2 = 0.7254 | 957.17 | 1.057
303.15 K, x2 = 0.8194 | 923.09 | 0.861
303.15 K, x2 = 0.9106 | 890.45 | 0.716
313.15 K, x2 = 0 | 1251.9 | 7.808
313.15 K, x2 = 0.1118 | 1200.44 | 4.943
313.15 K, x2 = 0.2205 | 1151.53 | 3.385
313.15 K, x2 = 0.3267 | 1105.77 | 2.452
313.15 K, x2 = 0.4301 | 1062.77 | 1.835
313.15 K, x2 = 0.5309 | 1022.32 | –
313.15 K, x2 = 0.6293 | 984.45 | 1.135
313.15 K, x2 = 0.7254 | 948.31 | 0.924
313.15 K, x2 = 0.8194 | 914.23 | 0.757
313.15 K, x2 = 0.9106 | 881.6 | 0.632
323.15 K, x2 = 0 | 1243.36 | 6.194
323.15 K, x2 = 0.1118 | 1191.64 | 4.007
323.15 K, x2 = 0.2205 | 1142.7 | 2.801
323.15 K, x2 = 0.3267 | 1096.92 | 2.048
323.15 K, x2 = 0.4301 | 1053.9 | 1.561
323.15 K, x2 = 0.5309 | 1013.47 | 1.136
323.15 K, x2 = 0.6293 | 975.58 | 0.993
323.15 K, x2 = 0.7254 | 939.43 | 0.813
323.15 K, x2 = 0.8194 | 905.36 | 0.66
323.15 K, x2 = 0.9106 | 872.72 | 0.564
333.15 K, x2 = 0 | 1234.62 | 5.009
333.15 K, x2 = 0.1118 | 1182.85 | 3.33
333.15 K, x2 = 0.2205 | 1133.86 | 2.35
333.15 K, x2 = 0.3267 | 1088.06 | 1.763
333.15 K, x2 = 0.4301 | 1045.02 | 1.347
333.15 K, x2 = 0.5309 | 1004.57 | –
333.15 K, x2 = 0.6293 | 966.66 | 0.876
333.15 K, x2 = 0.7254 | 930.5 | 0.724
333.15 K, x2 = 0.8194 | 896.41 | 0.597
333.15 K, x2 = 0.9106 | 863.76 | 0.505
343.15 K, x2 = 0 | 1225.92 | 4.126
343.15 K, x2 = 0.1118 | 1173.93 | 2.796
343.15 K, x2 = 0.2205 | 1124.89 | 2.005
343.15 K, x2 = 0.3267 | 1079.06 | 1.541
343.15 K, x2 = 0.4301 | 1036.02 | 1.177
343.15 K, x2 = 0.5309 | 995.54 | 0.882
343.15 K, x2 = 0.6293 | 957.62 | 0.772
343.15 K, x2 = 0.7254 | 921.43 | 0.646
343.15 K, x2 = 0.8194 | 887.32 | 0.536
343.15 K, x2 = 0.9106 | 854.67 | 0.459
353.15 K, x2 = 0 | 1216.8 | 3.44
353.15 K, x2 = 0.1118 | 1165.14 | 2.371
353.15 K, x2 = 0.2205 | 1116.08 | 1.736
353.15 K, x2 = 0.3267 | 1070.18 | 1.319
353.15 K, x2 = 0.4301 | 1027.1 | 1.039
353.15 K, x2 = 0.5309 | 986.58 | 0.785
353.15 K, x2 = 0.6293 | 948.63 | 0.692
353.15 K, x2 = 0.7254 | 912.4 | 0.583
353.15 K, x2 = 0.8194 | 878.28 | 0.484
353.15 K, x2 = 0.9106 | 845.58 | 0.417
